Measured values taken from article PMC6639057 (Investigational new drugs, 2018).
Where “and” joins values, the source holds several entries; their conditions need not be identical. Equal values may be shown once.

Tested on: patients with advanced solid tumors
Test: Adverse events
[1] = all patients, dose escalation and dose expansion (N = 105)
[2] = escalation 30 mg + G-CSF (n = 6)
[3] = escalation 35 mg + G-CSF (n = 3)

In the case of Cc1csc(-c2nnc(Nc3ccc(Oc4ncccc4-c4ccnc(N)n4)cc3)c3ccccc23)c1 [AMG 900], the “AEs leading to discontinuation of AMG 900” value (shortened to “AEs leading”) (Total (N = 105)) is reported as 25 (24) n (%), the “All treatment-emergent AEs” value (Total (N = 105)) is reported as 105 (100) n (%) and the “All treatment-related AEs” value (Total (N = 105)) is reported as 98 (93) n (%). The “Fatal AEs” value (Total (N = 105)) was 5 (5) n (%), the “Grade ≥ 3 AEs” value (Total (N = 105)) was 79 (75) n (%) and the “Grade ≥ 3 treatment-related AEs” value (Total (N = 105)) was 61 (58) n (%). For the same molecule, the “Grade ≥ 3 treatment-related AEs: Anemia” value (Total (N = 105)) was 24 (23) n (%), the “Grade ≥ 3 treatment-related AEs: Diarrhea” value (Total (N = 105)) was 4 (4) n (%) and the “Grade ≥ 3 treatment-related AEs: Fatigue” value (Total (N = 105)) was 5 (5) n (%). For the same molecule, the “Grade ≥ 3 treatment-related AEs: Febrile neutropenia” value (Total (N = 105)) was 10 (10) n (%), the “Grade ≥ 3 treatment-related AEs: Hemoglobin decreased” value (Total (N = 105)) was 4 (4) n (%) and the “Grade ≥ 3 treatment-related AEs: Leukopenia” value (Total (N = 105)) was 15 (14) n (%). For the same molecule, the “Grade ≥ 3 treatment-related AEs: Lymphopenia” value (Total (N = 105)) was 4 (4) n (%), the “Grade ≥ 3 treatment-related AEs: Nausea” value (Total (N = 105)) was 3 (3) n (%) and the “Grade ≥ 3 treatment-related AEs: Neutropenia” value (Total (N = 105)) was 44 (42) n (%). For the same molecule, the “Grade ≥ 3 treatment-related AEs: Thrombocytopenia” value (Total (N = 105)) was 13 (12) n (%), the “Grade ≥ 3 treatment-related AEs: Vomiting” value (Total (N = 105)) was 2 (2) n (%) and the “Grade ≥ 3 treatment-related AEs: White blood cell count decreased” value (Total (N = 105)) was 2 (2) n (%). The “Grade ≥ 4 AEs” value (Total (N = 105)) was 40 (38) n (%), the “Serious AEs” value (Total (N = 105)) was 39 (37) n (%) and the “Treatment-related AEs that led to discontinuation of AMG 900” value (all patients (13 patients)) was 12%. The “Treatment-related grade ≥ 4 AEs” value (all patients (31 patients)) was 30%, the “Dose reductions or interruptions due to AEs” value (all patients (47 patients)) was 45% and the “Dose reductions or interruptions” value (all patients (51 patients)) was 49%. The “Treatment-related grade ≥ 3 AEs” value (all patients (61 patients)) was 58%, the “Fatal AEs” value (all patients (five patients)) was 5% and the “Grade ≥ 4 diarrhea (only nonhematologic grade ≥ 4 AE)” value (all patients (n = 1)) was 1%. The “Treatment-related grade ≥ 4 leukopenia” value (all patients (n = 12)) was 11%, the “Discontinuation of AMG 900 due to AEs” value (all patients (n = 25), data cutoff December 31, 2014) was 24% and the “Treatment-related grade ≥ 4 neutropenia” value (all patients (n = 30)) was 29%. The “Grade ≥ 3 treatment-related anemia” value [1] was 23%, the “Grade ≥ 3 treatment-related leukopenia” value [1] was 14% and the “Grade ≥ 3 treatment-related neutropenia” value [1] was 37% and 42%. The “Grade ≥ 3 treatment-related thrombocytopenia” value [1] was 12%, the “Relation of fatal AEs to treatment” value (as judged by the investigator) was “none of the fatal AEs were considered treatment related” and the “AEs leading” value (escalation 16 mg (n = 3)) was 0 n (%). For the same molecule, the “All treatment-emergent AEs” value (escalation 16 mg (n = 3)) was 3 (100) n (%), the “All treatment-related AEs” value (escalation 16 mg (n = 3)) was 3 (100) n (%) and the “Fatal AEs” value (escalation 16 mg (n = 3)) was 0 n (%). For the same molecule, the “Grade ≥ 3 AEs” value (escalation 16 mg (n = 3)) was 1 (33) n (%), the “Grade ≥ 3 treatment-related AEs” value (escalation 16 mg (n = 3)) was 1 (33) n (%) and the “Grade ≥ 3 treatment-related AEs: Anemia” value (escalation 16 mg (n = 3)) was 1 (33) n (%). For the same molecule, the “Grade ≥ 3 treatment-related AEs: Diarrhea” value (escalation 16 mg (n = 3)) was 0 n (%), the “Grade ≥ 3 treatment-related AEs: Fatigue” value (escalation 16 mg (n = 3)) was 0 n (%) and the “Grade ≥ 3 treatment-related AEs: Febrile neutropenia” value (escalation 16 mg (n = 3)) was 0 n (%). For the same molecule, the “Grade ≥ 3 treatment-related AEs: Hemoglobin decreased” value (escalation 16 mg (n = 3)) was 0 n (%), the “Grade ≥ 3 treatment-related AEs: Leukopenia” value (escalation 16 mg (n = 3)) was 1 (33) n (%) and the “Grade ≥ 3 treatment-related AEs: Lymphopenia” value (escalation 16 mg (n = 3)) was 0 n (%). For the same molecule, the “Grade ≥ 3 treatment-related AEs: Nausea” value (escalation 16 mg (n = 3)) was 0 n (%), the “Grade ≥ 3 treatment-related AEs: Neutropenia” value (escalation 16 mg (n = 3)) was 1 (33) n (%) and the “Grade ≥ 3 treatment-related AEs: Thrombocytopenia” value (escalation 16 mg (n = 3)) was 0 n (%). For the same molecule, the “Grade ≥ 3 treatment-related AEs: Vomiting” value (escalation 16 mg (n = 3)) was 0 n (%), the “Grade ≥ 3 treatment-related AEs: White blood cell count decreased” value (escalation 16 mg (n = 3)) was 0 n (%) and the “Grade ≥ 4 AEs” value (escalation 16 mg (n = 3)) was 1 (33) n (%). The “Serious AEs” value (escalation 16 mg (n = 3)) was 0 n (%), the “AEs leading” value (escalation 24 mg (n = 6)) was 1 (17) n (%) and the “All treatment-emergent AEs” value (escalation 24 mg (n = 6)) was 6 (100) n (%). The “All treatment-related AEs” value (escalation 24 mg (n = 6)) was 5 (83) n (%), the “Fatal AEs” value (escalation 24 mg (n = 6)) was 0 n (%) and the “Grade ≥ 3 AEs” value (escalation 24 mg (n = 6)) was 5 (83) n (%). For the same molecule, the “Grade ≥ 3 treatment-related AEs” value (escalation 24 mg (n = 6)) was 5 (83) n (%), the “Grade ≥ 3 treatment-related AEs: Anemia” value (escalation 24 mg (n = 6)) was 0 n (%) and the “Grade ≥ 3 treatment-related AEs: Diarrhea” value (escalation 24 mg (n = 6)) was 0 n (%). For the same molecule, the “Grade ≥ 3 treatment-related AEs: Fatigue” value (escalation 24 mg (n = 6)) was 0 n (%), the “Grade ≥ 3 treatment-related AEs: Febrile neutropenia” value (escalation 24 mg (n = 6)) was 0 n (%) and the “Grade ≥ 3 treatment-related AEs: Hemoglobin decreased” value (escalation 24 mg (n = 6)) was 0 n (%). For the same molecule, the “Grade ≥ 3 treatment-related AEs: Leukopenia” value (escalation 24 mg (n = 6)) was 2 (33) n (%), the “Grade ≥ 3 treatment-related AEs: Lymphopenia” value (escalation 24 mg (n = 6)) was 1 (17) n (%) and the “Grade ≥ 3 treatment-related AEs: Nausea” value (escalation 24 mg (n = 6)) was 0 n (%). The “Grade ≥ 3 treatment-related AEs: Neutropenia” value (escalation 24 mg (n = 6)) was 4 (67) n (%), the “Grade ≥ 3 treatment-related AEs: Thrombocytopenia” value (escalation 24 mg (n = 6)) was 0 n (%) and the “Grade ≥ 3 treatment-related AEs: Vomiting” value (escalation 24 mg (n = 6)) was 0 n (%). For the same molecule, the “Grade ≥ 3 treatment-related AEs: White blood cell count decreased” value (escalation 24 mg (n = 6)) was 0 n (%), the “Grade ≥ 4 AEs” value (escalation 24 mg (n = 6)) was 3 (50) n (%) and the “Serious AEs” value (escalation 24 mg (n = 6)) was 1 (17) n (%). The “AEs leading” value (escalation 25 mg (n = 7)) was 2 (29) n (%), the “All treatment-emergent AEs” value (escalation 25 mg (n = 7)) was 7 (100) n (%) and the “All treatment-related AEs” value (escalation 25 mg (n = 7)) was 5 (71) n (%). The “Fatal AEs” value (escalation 25 mg (n = 7)) was 1 (14) n (%), the “Grade ≥ 3 AEs” value (escalation 25 mg (n = 7)) was 3 (43) n (%) and the “Grade ≥ 3 treatment-related AEs” value (escalation 25 mg (n = 7)) was 2 (29) n (%). The “Grade ≥ 3 treatment-related AEs: Anemia” value (escalation 25 mg (n = 7)) was 2 (29) n (%), the “Grade ≥ 3 treatment-related AEs: Diarrhea” value (escalation 25 mg (n = 7)) was 0 n (%) and the “Grade ≥ 3 treatment-related AEs: Fatigue” value (escalation 25 mg (n = 7)) was 0 n (%). For the same molecule, the “Grade ≥ 3 treatment-related AEs: Febrile neutropenia” value (escalation 25 mg (n = 7)) was 0 n (%), the “Grade ≥ 3 treatment-related AEs: Hemoglobin decreased” value (escalation 25 mg (n = 7)) was 1 (14) n (%) and the “Grade ≥ 3 treatment-related AEs: Leukopenia” value (escalation 25 mg (n = 7)) was 1 (14) n (%). For the same molecule, the “Grade ≥ 3 treatment-related AEs: Lymphopenia” value (escalation 25 mg (n = 7)) was 0 n (%), the “Grade ≥ 3 treatment-related AEs: Nausea” value (escalation 25 mg (n = 7)) was 0 n (%) and the “Grade ≥ 3 treatment-related AEs: Neutropenia” value (escalation 25 mg (n = 7)) was 1 (14) n (%). For the same molecule, the “Grade ≥ 3 treatment-related AEs: Thrombocytopenia” value (escalation 25 mg (n = 7)) was 0 n (%), the “Grade ≥ 3 treatment-related AEs: Vomiting” value (escalation 25 mg (n = 7)) was 0 n (%) and the “Grade ≥ 3 treatment-related AEs: White blood cell count decreased” value (escalation 25 mg (n = 7)) was 0 n (%). For the same molecule, the “Grade ≥ 4 AEs” value (escalation 25 mg (n = 7)) was 2 (29) n (%), the “Serious AEs” value (escalation 25 mg (n = 7)) was 1 (14) n (%) and the “AEs leading” value (escalation 30 mg (n = 6)) was 4 (67) n (%). For the same molecule, the “All treatment-emergent AEs” value (escalation 30 mg (n = 6)) was 6 (100) n (%), the “All treatment-related AEs” value (escalation 30 mg (n = 6)) was 6 (100) n (%) and the “Fatal AEs” value (escalation 30 mg (n = 6)) was 0 n (%). The “Grade ≥ 3 AEs” value (escalation 30 mg (n = 6)) was 6 (100) n (%), the “Grade ≥ 3 treatment-related AEs” value (escalation 30 mg (n = 6)) was 4 (67) n (%) and the “Grade ≥ 3 treatment-related AEs: Anemia” value (escalation 30 mg (n = 6)) was 0 n (%). For the same molecule, the “Grade ≥ 3 treatment-related AEs: Diarrhea” value (escalation 30 mg (n = 6)) was 0 n (%), the “Grade ≥ 3 treatment-related AEs: Fatigue” value (escalation 30 mg (n = 6)) was 0 n (%) and the “Grade ≥ 3 treatment-related AEs: Febrile neutropenia” value (escalation 30 mg (n = 6)) was 0 n (%). For the same molecule, the “Grade ≥ 3 treatment-related AEs: Hemoglobin decreased” value (escalation 30 mg (n = 6)) was 0 n (%), the “Grade ≥ 3 treatment-related AEs: Leukopenia” value (escalation 30 mg (n = 6)) was 3 (50) n (%) and the “Grade ≥ 3 treatment-related AEs: Lymphopenia” value (escalation 30 mg (n = 6)) was 0 n (%). For the same molecule, the “Grade ≥ 3 treatment-related AEs: Nausea” value (escalation 30 mg (n = 6)) was 0 n (%), the “Grade ≥ 3 treatment-related AEs: Neutropenia” value (escalation 30 mg (n = 6)) was 4 (67) n (%) and the “Grade ≥ 3 treatment-related AEs: Thrombocytopenia” value (escalation 30 mg (n = 6)) was 1 (17) n (%). The “Grade ≥ 3 treatment-related AEs: Vomiting” value (escalation 30 mg (n = 6)) was 0 n (%), the “Grade ≥ 3 treatment-related AEs: White blood cell count decreased” value (escalation 30 mg (n = 6)) was 0 n (%) and the “Grade ≥ 4 AEs” value (escalation 30 mg (n = 6)) was 6 (100) n (%). The “Serious AEs” value (escalation 30 mg (n = 6)) was 3 (50) n (%), the “AEs leading” value [2] was 1 (17) n (%) and the “All treatment-emergent AEs” value [2] was 6 (100) n (%). For the same molecule, the “All treatment-related AEs” value [2] was 6 (100) n (%), the “Fatal AEs” value [2] was 0 n (%) and the “Grade ≥ 3 AEs” value [2] was 5 (83) n (%). The “Grade ≥ 3 treatment-related AEs” value [2] was 3 (50) n (%), the “Grade ≥ 3 treatment-related AEs: Anemia” value [2] was 1 (17) n (%) and the “Grade ≥ 3 treatment-related AEs: Diarrhea” value [2] was 0 n (%). For the same molecule, the “Grade ≥ 3 treatment-related AEs: Fatigue” value [2] was 0 n (%), the “Grade ≥ 3 treatment-related AEs: Febrile neutropenia” value [2] was 0 n (%) and the “Grade ≥ 3 treatment-related AEs: Hemoglobin decreased” value [2] was 0 n (%). For the same molecule, the “Grade ≥ 3 treatment-related AEs: Leukopenia” value [2] was 2 (33) n (%), the “Grade ≥ 3 treatment-related AEs: Lymphopenia” value [2] was 0 n (%) and the “Grade ≥ 3 treatment-related AEs: Nausea” value [2] was 0 n (%). For the same molecule, the “Grade ≥ 3 treatment-related AEs: Neutropenia” value [2] was 3 (50) n (%), the “Grade ≥ 3 treatment-related AEs: Thrombocytopenia” value [2] was 2 (33) n (%) and the “Grade ≥ 3 treatment-related AEs: Vomiting” value [2] was 0 n (%). The “Grade ≥ 3 treatment-related AEs: White blood cell count decreased” value [2] was 0 n (%), the “Grade ≥ 4 AEs” value [2] was 2 (33) n (%) and the “Serious AEs” value [2] was 3 (50) n (%). For the same molecule, the “AEs leading” value [3] was 0 n (%) and the “All treatment-emergent AEs” value [3] was 3 (100) n (%).
